Measurements taken from US20210244028A1, “TREATMENT FOR REMOVING ECTOPARASITES FROM FISH” (priority 2018, published 2021).
Values joined by “and” are separate entries in the source; they are usually repeats but may differ in a detail not shown here. Equal values may be shown once.

Tests used:
[1] = tested on: azamethiphos- and deltamethrin-resistant sea lice; assay: In vitro bath exposure of isolated sea lice (Example 6); conditions: 30 minutes exposure, registered approx. 20 h after end of exposure
Procedure: A trial was performed to ensure there was no cross-resistance between azamethiphos- and deltamethrin-resistant sea lice and neonicotinoids. Both pre-adult and adult stages (mobile stages) of both sexes were used, and they were equally distributed among groups. The sea lice were exposed to imidacloprid for 60 minutes, azamethiphos for 60 minutes and deltamethrin for 30 minutes in one litre baths at a range of concentrations (Tables 6, 7 and 8). The sea lice were transferred to clean aerated seawater after treatment. The temperature of the seawater during the experiment was 12° C., but during exposure the temperature raised to approx. 14° C. in regimes exposed for 60 min. (imidacloprid and azamethiphos) and to 13° C. for the regime exposed in 30 minutes (deltamethrin).
The numbers of live and immobilised (including killed) lice in each regime were registered approximately 20 h after end of exposure. Each louse was individually investigated.

Salmon lice = assay: Bath treatment of lice-infected Atlantic salmon, percent lice removed (Example 7); format: in vivo; conditions: 0.2 μl/l, 30 minutes, duplicate, 3 fish per test
Procedure: To determine the concentration- and time-dependence of imidacloprid treatment in vivo, Atlantic salmon (average of 320.9 g) were challenged with imidacloprid in seawater ([…] salinity) at 12° C. The water level in the tank was lowered and aeration was employed during administration of the active. The salmon louse copepodid culture was counted and adjusted to obtain a target level of around 40 copepodids per fish in the challenge tank at each challenge time point.
Salmon lice on the fish were counted using standard methods. Only lice on the fish's outer surface, not including gills and oral/buccal cavities, were investigated.
Numbers of dissociated lice in tank water or attached to the tank walls were recorded. Lice in the tank water were collected and assessed for ability to attach by suction to a smooth plastic surface immediately after treatment and again after 30-60 minutes (to assess possible revival). […]
To terminate the treatment, the inner compartment with treated fish was lifted to the surface and drained, then fish were transferred directly and without water to a second basin with a lethal overdose of anaesthetic and left until dead. All lice remaining on these fish and lice that fell off in the anaesthetic bath were recorded. […]

CC1(C)[C@H](C(=O)O[C@H](C#N)c2cccc(Oc3ccccc3)c2)[C@@H]1C=C(Br)Br [deltamethrin]
% effect ([1]; 5 ppm): 0%
Immobilised ([1]; 5 ppm): 0
Live ([1]; 5 ppm): 10
Live ([1]; 10 ppm): 9 and 10
% effect ([1]; 15 ppm): 20% and 10%
Immobilised ([1]; 15 ppm): 2 and 1
Live ([1]; 15 ppm): 8 and 9
% effect ([1]; 20 ppm): 20% and 10%
Immobilised ([1]; 20 ppm): 2 and 1
Live ([1]; 20 ppm): 8 and 9
Immobilised ([1]; 30 ppm): 1 and 2
Live ([1]; 30 ppm): 10 and 8
% Removal (Salmon lice): 0^37%
